{"source": "patent US7897788B2", "about": "“Indol-1-yl-acetic acid derivatives” (Actelion Pharmaceutical Ltd., priority 2004, dated 2011)", "key": {"[1]": {"target": "T1, hCRTH2 receptor (Homo sapiens, UniProt Q9Y5Y4)", "T1 construct": "expressed in transfected cells", "T1 sequence (Q9Y5Y4 1-395)": "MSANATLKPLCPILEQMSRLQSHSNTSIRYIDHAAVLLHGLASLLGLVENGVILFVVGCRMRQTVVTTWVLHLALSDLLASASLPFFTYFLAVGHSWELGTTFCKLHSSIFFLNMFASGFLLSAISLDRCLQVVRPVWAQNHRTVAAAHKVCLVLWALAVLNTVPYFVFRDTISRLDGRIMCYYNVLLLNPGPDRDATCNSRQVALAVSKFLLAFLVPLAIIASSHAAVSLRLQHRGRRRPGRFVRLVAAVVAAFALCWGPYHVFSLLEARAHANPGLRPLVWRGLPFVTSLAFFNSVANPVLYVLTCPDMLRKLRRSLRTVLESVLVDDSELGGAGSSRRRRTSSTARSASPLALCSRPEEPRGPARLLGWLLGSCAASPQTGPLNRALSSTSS", "experiment": "CRTH2 membranes radioligand binding assay ({3H}-PGD2), Example B-1", "details": "{3H}-PGD2 radioligand binding, read-out: CRTH2 binding IC50 (nM) (method B1 above)", "method": "The ability of the compounds of formula I, IC1, IC2 or IP to bind to the CRTH2 receptor may be measured by methods similar to those described in Sawyer N. et al., Br. J. Pharmacol. (2002), 137, 1163-1172 and by the method described below in Example B-1.\nPreparation of the membranes and radioligand binding assays are performed according to known procedures, e.g. Sawyer N. et al. (Br. J. Pharmacol., 2002, 137, 1163-1172). A clonal HEK 293 cell line, expressing high level of recombinant hCRTH2 receptor, is selected for the preparation of membranes. Cells are detached from culture plates in 5 ml buffer A per plate (5 mM Tris, 1 mM MgCl2x6H2O, 0.1 mM PMSF, 0.1 mM phenanthroline) using a police rubber and transferred into centrifugation tubes and frozen at −80° C. After thawing, the cells are centrifuged at 500 g for 5 min and then resuspended in buffer A. Cells are then fragmented by homogenization with a Polytron homogenizer for 30 s. The membrane fragments are centrifuged at 3000 g for 40 min and resuspended in membranes in buffer B (50 mM Tris, 25 mM MgCl2, 250 mM saccharose, pH 7.4) and aliquots are stored frozen.\nBinding assay is performed in a total volume of 250 μl. In each well, 75 μl buffer C (50 mM Tris, 100 mM NaCl, 1 mM EDTA, 0.1% BSA (protease free), 0.01% NaN3, pH 7.4) was mixed with 50 μl {^3H}-PGD2 (at 2.5 nM (220.000 dpm per well) from Amersham, TRK734), 100 μl CRTH2 membranes to give 80 μg per well and 25 μl of test compound in buffer C containing 1% DMSO. For unspecific binding, PGD2 is added to the reaction mixture at 1 μM final concentration. This binding assay mix is incubated at rt for 90 min and then filtered through a GF/C filter plate. The filter is washed three times with ice cold binding buffer. Then, 40 μl per well Microscint-40 (Packard) are added and the bound radioactivity is quantified by means of Topcount (Packard)."}, "[2]": {"target": "T1, hCRTH2 receptor", "experiment": "Intracellular calcium mobilization assay (FLIPR), Example B-2", "type": "cell-based", "details": "HEK-293 cells expressing hCRTH2; 10 nM prostaglandin D2 as agonist; read-out: CRTH2 FLIPR IC50 (nM) (method B2 above)", "method": "A functional assay with cells expressing the human CRTH2 receptor may be used to detect changes in the levels of intracellular calcium concentration following compound treatment. After addition of the compound the cells are challenged with PGD2. In a Fluorescent Imaging Plate Reader (FLIPR™, Molecular Devices, Sunnyvale, Calif.) fluorescence emission is recorded during both additions, emission peak values above base level after PGD2 addition were exported, normalized to low controls (no PGD2) and high controls (no active compound). The relative values of the remaining activity were used to determine IC50 values by curve fitting the data to a single site to a four-parameter logistic sigmoid dose response curve of the equation (A+((B−A)/(1+((C/x)^D)))).\nThe ability of the compounds to antagonize PGD2 induced change of intracellular calcium levels via CRTH2 activation may be measured by methods known of one skilled in the art or by the method described below in Example B-2.\nCells (HEK-293), stably expressing the hCRTH2 receptor under the control of the cytomegalovirus promotor from a single insertion of the expression vector pcDNA5 (Invitrogen), are grown to confluency in DMEM (low glucose, Gibco) medium supplemented with 10% fetal calf serum (both Bioconcept, Switzerland) under standard mammalian cell culture conditions (37° C. in a humidified atmosphere of 5% CO2). Cells are detached from culture dishes using a dissociation buffer (0.02% EDTA in PBS, Gibco) for 1 min, and collected by centrifugation at 200 g at rt for 5 min in assay buffer (equal parts of Hank's BSS (HBSS, Bioconcept) and DMEM (low glucose, without phenol red, Gibco)). After incubation for 45 min (37° C. and 5% CO2) in the presence of 1 μM Fluo-4 and 0.04% Pluronic F-127 (both Molecular Probes), 20 mM HEPES (Gibco) in assay buffer, the cells are washed with and resuspended in assay buffer, then seeded onto 384-well FLIPR assay plates (Greiner) at 50,000 cells in 66 μl per well), and sedimented by centrifugation.\nStock solutions of test compounds are made up at a concentration of 10 mM in DMSO, and serially diluted in assay buffer to concentrations required for inhibition dose response curves. Prostaglandin D2 (Biomol, Plymouth Meeting, Pa.) is used as an agonist.\nA FLIPR384 instrument (Molecular Devices) is operated according to the manufacturer's standard instructions, adding 4 μl of test compound dissolved at 10 mM in DMSO and diluted prior to the experiment in assay buffer to obtain the desired final concentration. 10 μl of 80 nM prostaglandin D2 (Biomol, Plymouth Meeting, Pa.) in assay buffer, supplemented with 0.8% bovine serum albumin (fatty acid content<0.02%, Sigma), is then added to obtain a final concentration of 10 nM and 0.1%, respectively. Changes in fluorescence are monitored before and after the addition of test compounds at λex=488 nm and λem=540 nm. Emission peak values above base level after prostaglandin D2 addition are exported after base line subtraction. Values are normalized to high-level control (no test compound added) after subtraction of base line value (no prostaglandin D2 added). The program XLlfit 3.0 (IDBS) is used to fit the data to a single site dose response curve of the equation (A+((B−A)/(1+((C/x)^D)))) and to calculate the IC50 values."}}, "data": [{"compound": "COc1ccc(Cl)cc1NC(=O)/C(C#N)=C/c1cn(CC(=O)O)c2ccccc12", "note": "[Example 64, {3-[(E)-2-(5-chloro-2-methoxy-phenylcarbamoyl)-2-cyano-vinyl]-indol-1-yl}-acetic acid]", "values": [{"measurement": "IC50", "setting": "[1]", "result": 40, "unit": "nM"}, {"measurement": "IC50", "setting": "[2]", "result": 61, "unit": "nM"}]}, {"compound": "CC(=O)c1ccc(N(C)C(=O)/C(C#N)=C/c2cn(CC(=O)O)c3ccccc23)cc1", "note": "[Example 94, (3-{(E)-2-[(4-acetyl-phenyl)-methyl-carbamoyl]-2-cyano-vinyl}-indol-1-yl)-acetic acid]", "values": [{"measurement": "IC50", "setting": "[1]", "result": 10, "unit": "nM"}, {"measurement": "IC50", "setting": "[2]", "result": 181, "unit": "nM"}]}, {"compound": "N#C/C(=C\\c1cn(CC(=O)O)c2ccccc12)C(=O)N(CC(=O)O)c1ccccc1", "note": "[Example 99, {3-[(E)-2-(carboxymethyl-phenyl-carbamoyl)-2-cyano-vinyl]-indol-1-yl}-acetic acid]", "values": [{"measurement": "IC50", "setting": "[1]", "result": 16, "unit": "nM"}, {"measurement": "IC50", "setting": "[2]", "result": 159, "unit": "nM"}]}, {"compound": "Cc1ccc2c(/C=C(\\C#N)C(=O)N3Cc4ccccc4Cc4ccccc43)cn(CC(=O)O)c2c1", "note": "[Example 149, {3-[(E)-2-cyano-3-(6,11-dihydro-dibenzo[b,e]azepin-5-yl)-3-oxo-propenyl]-6-methyl-indol-1-yl}-acetic acid]", "values": [{"measurement": "IC50", "setting": "[1]", "result": 49, "unit": "nM"}, {"measurement": "IC50", "setting": "[2]", "result": 253, "unit": "nM"}]}, {"compound": "N#C/C(=C\\c1cn(CC(=O)O)c2ccccc12)C(=O)N(Cc1ccccc1)c1ccccc1", "note": "[Example 12, {3-[(E)-2-(benzyl-phenyl-carbamoyl)-2-cyano-vinyl]-indol-1-yl}-acetic acid]", "values": [{"measurement": "IC50", "setting": "[1]", "result": 29, "unit": "nM"}, {"measurement": "IC50", "setting": "[2]", "result": 90, "unit": "nM"}]}, {"compound": "N#C/C(=C\\c1cn(CC(=O)O)c2ccccc12)C(=O)Nc1ccccc1Cc1ccccc1", "note": "[Example 29, {3-[(E)-2-(2-benzyl-phenylcarbamoyl)-2-cyano-vinyl]-indol-1-yl}-acetic acid]", "values": [{"measurement": "IC50", "setting": "[1]", "result": 42, "unit": "nM"}, {"measurement": "IC50", "setting": "[2]", "result": 151, "unit": "nM"}]}, {"compound": "CN(C(=O)/C(C#N)=C/c1cn(CC(=O)O)c2ccccc12)c1cccc(Cl)c1", "note": "[Example 101, (3-{(E)-2-[(3-chloro-phenyl)-methyl-carbamoyl]-2-cyano-vinyl}-indol-1-yl)-acetic acid]", "values": [{"measurement": "IC50", "setting": "[1]", "result": 15, "unit": "nM"}, {"measurement": "IC50", "setting": "[2]", "result": 182, "unit": "nM"}]}, {"compound": "N#C/C(=C\\c1cn(CC(=O)O)c2ccccc12)C(=O)N1c2ccccc2C=Cc2ccccc21", "note": "[Example 87, sodium [3-((E)-2-cyano-3-dibenzo[b,f]azepin-5-yl-3-oxo-propenyl)-indol-1-yl]-acetate]", "values": [{"measurement": "IC50", "setting": "[1]", "result": 12, "unit": "nM"}, {"measurement": "IC50", "setting": "[2]", "result": 57, "unit": "nM"}]}, {"compound": "CN(C(=O)/C(C#N)=C/c1cn(CC(=O)O)c2ccccc12)c1ccccc1", "note": "[Example 46, {3-[(E)-2-cyano-2-(methyl-phenyl-carbamoyl)-vinyl]-indol-1-yl}-acetic acid]", "values": [{"measurement": "IC50", "setting": "[1]", "result": 11, "unit": "nM"}, {"measurement": "IC50", "setting": "[2]", "result": 61, "unit": "nM"}]}, {"compound": "COc1ccc(N(C)C(=O)/C(C#N)=C/c2cn(CC(=O)O)c3ccccc23)cc1", "note": "[Example 45, (3-{(E)-2-cyano-2-[(4-methoxy-phenyl)-methyl-carbamoyl]-vinyl}-indol-1-yl)-acetic acid]", "values": [{"measurement": "IC50", "setting": "[1]", "result": 7, "unit": "nM"}, {"measurement": "IC50", "setting": "[2]", "result": 48, "unit": "nM"}]}, {"compound": "CN(C(=O)/C(C#N)=C/c1cn(CC(=O)O)c2ccc(F)cc12)c1ccccc1C(F)(F)F", "note": "[Example 141, (3-{(E)-2-cyano-2-[methyl-(2-trifluoromethyl-phenyl)-carbamoyl]-vinyl}-5-fluoro-indol-1-yl)-acetic acid]", "values": [{"measurement": "IC50", "setting": "[1]", "result": 17, "unit": "nM"}, {"measurement": "IC50", "setting": "[2]", "result": 47, "unit": "nM"}]}, {"compound": "Cc1ccc(NC(=O)/C(C#N)=C/c2cn(CC(=O)O)c3ccccc23)cc1Br", "note": "[Example 70, {3-[(E)-2-(3-bromo-4-methyl-phenylcarbamoyl)-2-cyano-vinyl]-indol-1-yl}-acetic acid]", "values": [{"measurement": "IC50", "setting": "[1]", "result": 76, "unit": "nM"}, {"measurement": "IC50", "setting": "[2]", "result": 58, "unit": "nM"}]}, {"compound": "N#C/C(=C\\c1cn(CC(=O)O)c2ccccc12)C(=O)Nc1cccc(C(=O)c2ccccc2)c1", "note": "[Example 54, {3-[(E)-2-(3-benzoyl-phenylcarbamoyl)-2-cyano-vinyl]-indol-1-yl}-acetic acid]", "values": [{"measurement": "IC50", "setting": "[1]", "result": 18, "unit": "nM"}, {"measurement": "IC50", "setting": "[2]", "result": 98, "unit": "nM"}]}, {"compound": "N#C/C(=C\\c1cn(CC(=O)O)c2ccccc12)C(=O)N1Cc2ccccc2Cc2ccccc21", "note": "[Example 89, {3-[(E)-2-cyano-3-(6,11-dihydro-dibenzo[b,e]azepin-5-yl)-3-oxo-propenyl]-indol-1-yl}-acetic acid]", "values": [{"measurement": "IC50", "setting": "[1]", "result": 6, "unit": "nM"}, {"measurement": "IC50", "setting": "[2]", "result": 114, "unit": "nM"}]}, {"compound": "N#C/C(=C\\c1cn(CC(=O)O)c2ccccc12)C(=O)N1CCCc2ccccc21", "note": "[Example 47, {3-[(E)-2-cyano-3-(3,4-dihydro-2H-quinolin-1-yl)-3-oxo-propenyl]-indol-1-yl}-acetic acid]", "values": [{"measurement": "IC50", "setting": "[1]", "result": 9, "unit": "nM"}, {"measurement": "IC50", "setting": "[2]", "result": 54, "unit": "nM"}]}, {"compound": "N#C/C(=C\\c1cn(CC(=O)O)c2ccccc12)C(=O)N1c2ccccc2Sc2ccc(Cl)cc21", "note": "[Example 113, {3-[(E)-3-(2-chloro-phenothiazin-10-yl)-2-cyano-3-oxo-propenyl]-indol-1-yl}-acetic acid]", "values": [{"measurement": "IC50", "setting": "[1]", "result": 9, "unit": "nM"}, {"measurement": "IC50", "setting": "[2]", "result": 66, "unit": "nM"}]}, {"compound": "N#C/C(=C\\c1cn(CC(=O)O)c2ccccc12)C(=O)Nc1ccccc1Oc1ccc(Cl)cc1Cl", "note": "[Example 49, (3-{(E)-2-cyano-2-[2-(2,4-dichloro-phenoxy)-phenylcarbamoyl]-vinyl}-indol-1-yl)-acetic acid]", "values": [{"measurement": "IC50", "setting": "[1]", "result": 35, "unit": "nM"}, {"measurement": "IC50", "setting": "[2]", "result": 146, "unit": "nM"}]}]}
